The values below come from patent publication US20170333391A1, “METHOD FOR DELAYING THE ONSET OF PULMONARY FIBROSIS OR TREATING PULMONARY FIBROSIS” (EVERFRONT BIOTECH INC., priority 2016, published 2017).

Assay [1] deals with TGF-β protein. In words: TGF-β protein expression in TGF-β1-induced NHLF, western blotting (2-2). The class given is cell-based, human. As to conditions: TGF-β1-only control group = 1. The procedure: Normal Human lung fibroblasts (NHLF) were seeded into 6 cm culture dishes at a density of 2×10^5 cells/dish, comprising a control group and six experimental groups (7 dishes in total). The cells were cultured until the next day, and then the mediums were removed. Each group was respectively treated under the following conditions to conduct follow-up experiments: • (1) Positive control group: cells were cultured in a FGM-2 medium containing 1% serum and TGF-β1 (5 ng/ml) for 36 hours; • (2) Group I: cells were firstly cultured in a FGM-2 medium containing 1% serum and TGF-β1 (5 ng/ml) for 12 hours, and then compound (1) was added into the medium to provide a final concentration of 15 μg/ml; thereafter, the cells were cultured for another 24 hours; • (3) Group II: cells were firstly cultured in a FGM-2 medium containing 1% serum and TGF-β1 (5 ng/ml) for 12 hours, and then compound (1) was added into the medium to provide a final concentration of 25 μg/ml; thereafter, the cells were cultured for another 24 hours; • (4) Group III: cells were firstly cultured in a FGM-2 medium containing 1% serum and TGF-β1 (5 ng/ml) for 12 hours, and then compound (1) was added into the medium to provide a final concentration of 35 μg/ml; thereafter, the cells were cultured for another 24 hours; • (5) Group IV: cells were firstly cultured in a FGM-2 medium containing 1% serum and TGF-β1 (5 ng/ml) for 12 hours, and then the Pirfenidone was added into the medium to provide a final concentration of 100 μg/ml; thereafter, the cells were cultured for another 24 hours; • (6) Group V: cells were firstly cultured in a FGM-2 medium containing 1% serum and TGF-β1 (5 ng/ml) for 12 hours, and then the Pirfenidone was added into the medium to provide a final concentration of 250 μg/ml; thereafter, the cells were cultured for another 24 hours; and • (7) Group VI: cells were firstly cultured in a FGM-2 medium containing 1% serum and TGF-β1 (5 ng/ml) for 12 hours, and then the Pirfenidone was added into the medium to provide a final concentration of 500 μg/ml; thereafter, the cells were cultured for another 24 hours.
Thereafter, the proteins in the cells of each group were extracted, and the expressions of type I collagen, BMP-7 protein and TGF-β protein in the NHLF cells of each group were measured with western blotting. The results of the control group served as the basis for calculating the relative expression levels of the other groups.
Background: Immunoblotting shows a protein as a band on a membrane.

Assay [2] deals with TGF-β protein. In words: TGF-β protein expression in NHLF, western blotting (3-1). It is filed as cell-based, human. Here is the method:
Normal Human lung fibroblasts (NHLF) were seeded into 6 cm culture dishes at a density of 2×10^5 cells/dish, comprising a control group and six experimental groups (7 dishes in total). The cells were cultured until the next day, and then the mediums were removed. Each group was respectively treated under the following conditions to conduct follow-up experiments: • (1) Control group: cells were cultured in a FGM-2 medium containing 10% serum for 36 hours; • (2) Group i: cells were cultured in a FGM-2 medium containing 1% serum for 36 hours; • (3) Group ii: cells were firstly cultured in a FGM-2 medium containing 1% serum for 12 hours, and then compound (1) was added into the medium to provide a final concentration of 15 μg/ml; thereafter, the cells were cultured for another 24 hours; • (4) Group iii: cells were firstly cultured in a FGM-2 medium containing 1% serum for 12 hours, and then compound (1) was added into the medium to provide a final concentration of 25 μg/ml; thereafter, the cells were cultured for another 24 hours; • (5) Group iv: cells were cultured in a FGM-2 medium containing 1% serum and TGF-β1 (5 ng/ml) for 36 hours; • (6) Group v: cells were firstly cultured in a FGM-2 medium containing 1% serum and TGF-β1 (5 ng/ml) for 12 hours, and then compound (1) was added into the medium to provide a final concentration of 15 μg/ml; thereafter, the cells were cultured for another 24 hours; and • (7) Group vi: cells were firstly cultured in a FGM-2 medium containing 1% serum and TGF-β1 (5 ng/ml) for 12 hours, and then compound (1) was added into the medium to provide a final concentration of 25 μg/ml; thereafter, the cells were cultured for another 24 hours.
Thereafter, the proteins in the cells of each group were extracted, and the expressions of BMP-7 protein, TGF-β protein and α-SMA protein in the NHLF cells of each group were measured with western blotting, wherein the β-actin served as the internal control. The results of the control group served as the basis for calculating the relative expression levels of the other groups.

For another assay, the system named is smad3 protein. In words: smad3 protein in mouse pulmonary tissue, western blotting. As to conditions: compared to oil group. The class given is in vivo, mice. Here is the method:
24 C57B/L6 mice (age: four weeks) were separated into four groups (6 mice in each group). […]
The samples of mice pulmonary tissue provided by Example 7 and preserved at −20° C. were removed from storage, and then ground in liquid nitrogen. […] The expressions of TGF-β protein, smad3 protein and surfactant C in the samples of each group were measured with western blotting, wherein the actin served as an internal control.

Structures are written as SMILES.

On to `CCCC=C1OC(=O)c2ccccc21` [compound (1)], for which the “Relative expression level (fold) TGF-β protein” value with TGF-β protein [1] (Group I: TGF-β1 5 ng/ml 12 h, then compound (1) 15 μg/ml 24 h) amounted to 0.81 fold; with TGF-β protein [1] (Group II: TGF-β1 5 ng/ml 12 h, then compound (1) 25 μg/ml 24 h), 0.77 fold; in the assay with TGF-β protein [1] (Group III: TGF-β1 5 ng/ml 12 h, then compound (1) 35 μg/ml 24 h), 0.58 fold; in the assay with TGF-β protein [2] (Group ii: 1% serum 12 h, then compound (1) 15 μg/ml 24 h, no TGF-β1, 10% serum control = 1, 1% serum group i = 0.66), 0.63 fold; with TGF-β protein [2] (Group iii: 1% serum 12 h, then compound (1) 25 μg/ml 24 h, no TGF-β1, 10% serum control = 1, 1% serum group i = 0.66), 0.52 fold; in the assay on TGF-β protein [2] (Group v: 1% serum + TGF-β1 5 ng/ml 12 h, then compound (1) 15 μg/ml 24 h, 10% serum control = 1, TGF-β1-only group iv = 0.80), 0.79 fold. The “Relative expression level (fold) TGF-β protein” value in the assay with TGF-β protein [2] (Group vi: 1% serum + TGF-β1 5 ng/ml 12 h, then compound (1) 25 μg/ml 24 h, 10% serum control = 1, TGF-β1-only group iv = 0.80) is 0.59 fold. Further, the “expression level of smad3 protein in pulmonary tissue” value in the assay with smad3 protein (High-dose group, compound (1) 50 mg/kg orally daily 30 days) is given as “significantly lower”; in the assay with smad3 protein (Low-dose group, compound (1) 10 mg/kg orally daily 30 days), “significantly lower”.
